Laboratory results taken from a melting point compilation (Tetko et al.; mined from patent text by program, amines drawn as free bases though some values may be those of a salt).

| SMILES | melting point |
| --- | --- |
| Fc1cnc(Nc2nc3c(s2)CCN(CCCN2CCOCC2)c2n[nH]cc2-3)nc1 | 251 to 254 °C |
| CCn1c(=O)ccc2cnc(Nc3ccc(N4CCOCC4)cc3)nc21 | 227 to 228 °C |
| CN(C1CCC(=O)CC1)S(=O)(=O)c1ccc(Nc2nccc(Nc3ccc(F)cc3)n2)cc1 | 203 °C |
| O=C(O)c1cn(C(c2ccccc2)(c2ccccc2)c2ccccc2)c(I)n1 | 203 to 205 °C |
| CC(C)n1c(CC[C@@H]2C[C@H](CC(=O)OC(C)(C)C)OC(C)(C)O2)c(-c2ccc(F)cc2)c(-c2ccccc2)c1C(N)=O | 201 to 202 °C |
| CCc1cc(O)c(C(C)=O)c(OC2OC(COC(C)=O)C(OC(C)=O)C(OC(C)=O)C2OC(C)=O)c1 (stereo not drawn) | 125 to 127 °C |
| COC(=O)C1=C(C)Nc2nccn2C1c1cccc(C(C)=O)c1 (stereo not drawn) | 227 to 229 °C |
| CN(C)CC1CCc2[nH]c3c(c2C1=O)CCC3 (stereo not drawn) | 164 to 165 °C |
| O=C(O)Cn1c(=O)n2n(c1=O)C(C(=O)O)CCC2 (stereo not drawn) | 189 to 192 °C |
| Oc1ccc2nc(-c3cccc(O)c3O)oc2c1 | 256 to 258 °C |
| O=C1c2c(Br)cccc2-n2cnc(I)c2[C@@H]2CCCN12 | 301 to 303 °C |
| COC(=O)c1cc2cc(COc3cccnc3)ccc2s1 | 106 to 107 °C |
| CCCCOc1ccc(S(=O)(=O)N2CC(NC[C@H](O)COc3ccc(O)cc3)C2)cc1 | 55 to 58 °C |
| C=C(c1ccccc1)c1ccc(NC(=S)NC(=O)OC)c(NC(=S)NC(=O)OC)c1 | 182 to 184 °C |
| O=C(CCc1ccccc1)N[C@H](Cc1cccc(Oc2ccccc2)c1)[C@@H](O)c1ccc(F)cc1 (racemic) | 91 to 93 °C |
| Cc1cc(Cl)cc2c(=O)oc(-c3cc(Cl)nn3-c3ncccc3Cl)nc12 | 199 to 201 °C |
| CCOC(=O)C=C1CSC(NC(=O)c2ccccc2)=NN1C(=O)c1ccccc1 | 187 to 189 °C |
| N#CC(C(=O)Nc1ccccc1)C(=O)c1nn(-c2ccccc2)c2c1CSc1ccccc1-2 (stereo not drawn) | 228 to 230 °C |
| Cc1cnc(N2CCN(C(=O)OC(C)(C)C)CC2)c2ccoc12 | 108 °C |
| CCOCc1nc2c(N)nc3ccccc3c2n1CCCCS(=O)(=O)NCc1ccc(OC)cc1 | 101 °C |
| COc1cccc(-c2[nH]cc(C3=C[C@@H]4C[C@@H](c5ccccc5)CN4CC3)c2-c2ccncc2)c1 | 141 to 144 °C |
| Cc1ccc(Cl)c(Nc2ccccc2C=C2SC(=N)NC2=O)c1Cl | 235 to 238 °C |
| CCOC(=O)CCCOc1ccc(C(N)=O)cc1 | 144 to 146 °C |
| O=C(O)Cn1c(=O)c2cc(Cl)ccc2n(Cc2ccc(Br)cc2F)c1=O | 189 °C |
| COC(=O)CCNc1ccc(CNC(=O)C2Cc3ccccc3N2S(=O)(=O)c2ccc(-c3cccc(C(F)(F)F)c3)cc2)cc1 (stereo not drawn) | 61 °C |

| SMILES | melting point |
| --- | --- |
| CCN1CCCC1CNC(=O)CCCOc1ccc2nc3[nH]c(=O)[nH]c3cc2c1 (stereo not drawn) | 233 to 237 °C |
| Clc1ccc2nc(-c3cccs3)c(I)n2n1 | 205 to 209 °C |
| O=C(Nc1ccc2ccc(Oc3ccccc3)nc2n1)C1=CSCCS1 | 240 °C |
| CN(C1CCN(CCCC(F)(F)F)CC1)S(=O)(=O)c1ccc(Nc2nccc(Nc3ccc(F)c(F)c3)n2)cc1 | 192 °C |
| CN(C)c1cc2c3c(cccc3c1)C(=O)N(CCCCCC(=O)O)C2=O | 111 to 114 °C |
| N=C(c1ccccc1)c1ccccc1N | 48 °C |
| CC(C)(C)[C@H]1CC[C@H](CCC(=O)N2C(=O)OC[C@@H]2Cc2ccccc2)CC1 | 132 to 135 °C |
| C1=CCC23C=CC=CN2c2nccn2C3=C1 (stereo not drawn) | 258 to 260 °C |
| CCn1cc(C(=O)NCc2ccc(Cl)cc2)c(=O)c2cc(CO)sc21 | 169 to 172 °C |
| COc1ccc(S(=O)(=O)/C(=C/C(=O)NO)CCCCc2ccccc2)cc1OC | 123 to 126 °C |
| C=CCN/C(=C1/Sc2ccccc2C1=O)c1ccccc1 | 104 to 106 °C |
| C=CCOC(=O)Nc1cc(-c2cccc(Cl)c2)sc1C(=O)OC | 101 to 103 °C |
| O=C(O)CC(CC(=O)O)c1ccc2oc3c(c2c1)CCCC3 | 165 to 170 °C |
| CCCC(CCC)(CCC)NC(=O)NC | 120 °C |
| OCCCn1cc(-c2cc3nccnc3[nH]2)c2ccccc21 | 220 to 221 °C |
| CCCn1nc2c(N)nc3ccccc3c2c1CCCCS(=O)(=O)NC | 166 to 169 °C |
| c1ccc2c(c1)Cc1cc(C3(Cn4ccnc4)OCCO3)ccc1-2 | 163 to 166 °C |
| CCCCCCCCOc1ccc(C(=O)OC(C)c2cc3c(s2)-n2c(C)nnc2CN=C3c2ccccc2Cl)cc1 (stereo not drawn) | 56 to 61 °C |
| O=C1N(Cc2ccc(C(F)(F)F)o2)c2ccccc2C12COc1ccc(=O)[nH]c12 (stereo not drawn) | 175 to 177 °C |
| O=C(O)c1ccc(Cl)cc1C(=O)NCCCCc1cccnc1 | 152 to 154 °C |
| c1cc2c(s1)CCCCN2 | 55 to 57 °C |
| CCc1cc(=O)c2c([nH]1)CCCN2C(=O)C(F)(F)F | 271 to 274 °C |
| C#CCn1c(=O)ccc2cc(F)c(-n3c(=O)cc(C(F)(F)F)n(C)c3=O)cc21 | 236 to 238 °C |
| CCCCCCCCCCc1ccc2cc(SC)c(OC)cc2c1 | 49.5 to 50.4 °C |
| Fc1ccc(Cn2c(NC3CCN(CCNC(=S)NCc4cccnc4)CC3)nc3ccccc32)cc1 | 147 °C |

| SMILES | melting point |
| --- | --- |
| CC(C#Cc1ccc(C=Cc2cccnc2)o1)N(O)C(N)=O (stereo not drawn) | 166 °C |
| Cc1ccc(C(=O)Cn2c(=NS(=O)(=O)c3ccc(C)cc3)sc3ccccc32)cc1 | 180 to 182 °C |
| CC(CCCC(=O)CCCC(C)(C(=O)O)c1ccccc1)(C(=O)O)c1ccccc1 (stereo not drawn) | 44 to 46 °C |
| CC(=O)c1ccc(CC(C)C)c(C#N)c1 | 71 to 72 °C |
| C(=C(c1ccccc1)N(c1ccccc1)c1ccccc1)c1cccc2ccccc12 | 170 to 172 °C |
| COC(=O)c1nc(Br)cc(N)c1Cl | 194 to 195 °C |
| CON=C(C(=O)OC)c1cccs1 | 106 °C |
| CC(C)(C)c1cc(C=CC(=O)NN)cc(C(C)(C)C)c1O | 166 °C |
| c1ccc(CN(Cc2ccccc2)C2CCC3(CC2)OCCO3)cc1 | > 95 °C |
| N#Cc1cc2c(Nc3cccc(Cl)c3)ncnc2[nH]1 | 284 to 287 °C |
| C#CCN1C(=O)COc2ccc(-c3ncc(C(F)(F)F)cc3Cl)cc21 | 136 to 137 °C |
| CNCC(=O)N1CC(c2ccc(Cl)cc2)Sc2ccccc21 (stereo not drawn) | 139 to 140 °C |
| CCOc1nn2c(-c3ccccc3)nnc2c2ccccc12 | 172 to 173 °C |
| CCCc1c(OCCCOc2ccc3c(c2CCC)OC(CCC(=O)OCC)CC3)ccc(C(C)=O)c1O (stereo not drawn) | 68 to 70 °C |
| CCN1CCCC1CNC(=O)c1cc(S(C)(=O)=O)c(N)cc1OC (stereo not drawn) | 151 to 152 °C |
| O=C(NCC1CC1)Nc1ccc(N2CCOCC2)cc1C(=O)NCC1CCN(C(c2ccccc2)c2ccccc2)CC1 | 218 to 220 °C |
| CN(Cc1ccc(NC(=O)C2=Cc3cc(-c4ccc(OC(F)(F)F)cc4)ccc3S(=O)(=O)CC2)cc1)C1CCOCC1 | 261 to 263 °C |
| CON=C(Cl)c1ccccc1S(=O)(=O)NC(=O)Nc1nc(C)cc(OC)n1 | 178 to 179 °C |
| CCOC(=O)COc1cc2ccsc2c(Cl)c1Cl | 92 to 93 °C |
| CCCCc1cccc2[nH]c(C(=O)OCC)cc(=O)c12 | 132 to 133 °C |
| CC(C)(C)C(=O)Nc1ccccc1C(c1ccc(O)cc1)c1ccc(O)cc1 | 259 to 262 °C |
| O=C1OC(O)c2c(F)cccc21 (stereo not drawn) | 97 to 100 °C |
| CC(C)(C)OC(=O)C[C@@H](CC1CCCC1)C(=O)O | 86.5 to 88 °C |
| O=C(O)CC1Cc2cccc3cccc1c23 (stereo not drawn) | 123 °C |
| Nc1ccccc1C(=O)NCCN1CCC2(CC1)C(=O)NCN2c1ccc(F)cc1 | 195 °C |

| SMILES | melting point |
| --- | --- |
| Oc1ccc2c(c1)OC(CNCCCc1c[nH]c3ccc(O)cc13)CO2 (stereo not drawn) | 140 to 144 °C |
| COc1ccc2c(c1)-c1cc(OC)ccc1C2=O | 123 to 125 °C |
| COc1ccccc1-c1oc2cccc3c2c1C=CC3=O | 144 °C |
| CCOCCOc1ccc(CCNC(=O)OC(C)(C)C)cc1 | 56 to 57 °C |
| N#CC(C#N)=C1c2ccsc2-c2c1cc([N+](=O)[O-])cc2[N+](=O)[O-] | 244 to 246 °C |
| Cc1cc2c(cc1Cl)N(C)C(=O)C2(NC(=O)CN1CCN(C)CC1)c1ccc(Cl)cc1 (stereo not drawn) | 217 to 219 °C |
| O=C(O)Cc1csc2cc(-c3ccccc3)cn12 | 114 to 116 °C |
| N#CC1(Nc2cccc(Cl)c2)CCN(C(=O)c2cc(C(F)(F)F)cc(C(F)(F)F)c2)CC1 | 205 to 207 °C |
| ClCCCc1cc2cccnc2[nH]1 | 75 °C |
| COCCc1nc2c(N)nc3ccccc3c2n1CCCCCCCCNC(=O)Nc1ccccc1 | 136 to 142 °C |
| COC(=O)CCn1nnnc1CC[C@H](NC(=O)OCc1ccccc1)C(=O)OC | 80 to 81 °C |
| O=C(CS(=O)(=O)c1ncc(Br)cn1)c1ccccc1 | 95 °C |
| NS(=O)(=O)c1nc(-c2ccccc2F)ns1 | 177 to 179 °C |
| COc1ccc(-c2nc(CCC(=O)O)oc2-c2ccccc2)cc1 | 118 to 120 °C |
| COC(=O)C1(NC(=O)Cc2cc(-c3ccc(Cl)cc3)ccc2Cl)CCCCC1 | 124 °C |
| CCCCCC(=O)OCC(=O)C1C(C)CC2C3=C(C(O)CC21C)C1(C)C=CC(=O)C=C1C(F)C3 (stereo not drawn) | 155 °C |
| CC(C)[C@H](NC(=O)OC(C)(C)C)C(=O)NCCCN1CCN(CCCNc2cccc3c2C(=O)c2ccccc2C3=O)CC1 | 108 °C |
| CCC(C)(C)N=C(Nc1cncnc1)c1ccc(Cl)cc1Cl | 136 to 137 °C |
| C=CCOc1ccc(C#N)c(OC(C(=O)OC)c2ccccc2C)c1 (racemic) | 98 to 99 °C |
| CC1=C(C)C(=O)C(CN2C(=O)[C@H]3CCC[C@H]3N(C(=O)CN3C(=O)c4ccccc4C3=O)c3ccccc32)=C(C)C1=O (relative stereo) | 258 to 260 °C |
| CCOC(=O)c1nnc(CNC(=O)c2cc3ccccc3[nH]2)n1-c1sc(CC)cc1C(=O)c1ccccc1Cl | 233 to 235 °C |
| COCn1c(C(=O)O)cc2cccc(NS(=O)(=O)c3ccccn3)c21 | 199 to 200 °C |
| CN1C(c2ccc(N3CCCCC3)cc2)=NC(C(F)(F)F)(C(F)(F)F)C1NC(=O)c1ccc(F)cc1 (stereo not drawn) | 123 to 124 °C |
